Reference: ChEMBL document CHEMBL1129595, “Potent 6-desfluoro-8-methylquinolones as new lead compounds in antibacterial chemotherapy” (J Med Chem, 1996)
Values after ≈ are worked out from the molar mass of the structure shown.

Assays:
[1] = Mean MIC against gram negative; type: functional
[2] = tested on: Enterobacter cloacae; test: In vitro antibacterial activity against Enterobacter cloacae OMNFI 174; type: functional
[3] = tested on: Enterococcus faecalis; test: In vitro antibacterial activity against Enterococcus faecalis LEP Br; type: functional
[4] = tested on: Pseudomonas aeruginosa; test: In vitro antibacterial activity against Pseudomonas aeruginosa OBT 307; type: functional
[5] = tested on: Staphylococcus aureus; test: In vitro antibacterial activity against Staphylococcus aureus M-R POMM 6214; type: functional
[6] = tested on: Klebsiella pneumoniae; test: In vitro antibacterial activity against Klebsiella pneumoniae ATCC 10031; type: functional
[7] = tested on: Escherichia coli; test: In vitro antibacterial activity against Escherichia coli 120; type: functional
[8] = tested on: Escherichia coli; test: In vitro antibacterial activity against Escherichia coliCPX-R OBT 431; type: functional
[9] = tested on: Pseudomonas aeruginosa; test: In vitro antibacterial activity against Pseudomonas aeruginosa […] 9027; type: functional
[10] = tested on: Proteus vulgaris; test: In vitro antibacterial activity against Proteus vulgaris CNUR 6; type: functional
[11] = tested on: Enterococcus faecalis; test: In vitro antibacterial activity against Enterococcus faecalis UCMC 39690; type: functional
[12] = tested on: Proteus mirabilis; test: In vitro antibacterial activity against Proteus mirabilis OBT 505; type: functional
[13] = tested on: Haemophilus influenzae; test: In vitro antibacterial activity against Haemophilus influenzae; type: functional
[14] = tested on: Escherichia coli; test: In vitro antibacterial activity against Escherichia coli ATCC 25922; type: functional
[15] = Mean MIC against gram positive; type: functional
[16] = tested on: Staphylococcus aureus; test: In vitro antibacterial activity against Staphylococcus aureus CPX-R OBT 687; type: functional
[17] = tested on: Staphylococcus aureus; test: In vitro antibacterial activity against Staphylococcus aureus MPR 5; type: functional
[18] = tested on: Streptococcus pyogenes; test: In vitro antibacterial activity against Streptococcus pyogenes OMNFI BI; type: functional
[19] = molecular target: DNA gyrase (Escherichia coli, UniProt P0AES4+P0AES6); test: Inhibitory effect against Escherichia coli Gyrase in Supercoiling assay; type: protein-complex assay
[20] = tested on: Staphylococcus aureus; test: In vitro antibacterial activity against Staphylococcus aureus ATCC 29213; type: functional
[21] = tested on: Streptococcus pneumoniae; test: In vitro antibacterial activity against Streptococcus pneumoniae I 0.43; type: functional
[22] = Mean MIC Against gram positive; type: functional

**Q.** Which results are given for `Cc1c(N2CCc3ccccc3C2)c(F)cc2c(=O)c(C(=O)O)cn(C3CC3)c12`?
**A.** MIC [1]: 0.869 µg/mL (≈ 2.21 µM); MIC [2]: 0.5 µg/mL (≈ 1.27 µM); MIC [3]: 0.5 µg/mL (≈ 1.27 µM); MIC [4]: 16 µg/mL (≈ 40.8 µM); MIC [5]: < 0.016 µg/mL; MIC [6]: 0.06 µg/mL (≈ 0.153 µM); MIC [7]: 0.25 µg/mL (≈ 0.637 µM); MIC [8]: > 16 µg/mL; MIC [9]: 4 µg/mL (≈ 10.2 µM); MIC [10]: 4 µg/mL (≈ 10.2 µM); MIC [11]: 0.06 µg/mL (≈ 0.153 µM); MIC [12]: 4 µg/mL (≈ 10.2 µM); MIC [13]: < 0.016 µg/mL; MIC [14]: 0.125 µg/mL (≈ 0.319 µM); MIC [15]: 0.074 µg/mL (≈ 0.189 µM); MIC [16]: 1 µg/mL (≈ 2.55 µM); MIC [17]: < 0.016 µg/mL; MIC [18]: 0.03 µg/mL (≈ 0.0764 µM); IC50 [19]: 7.64 µM; MIC [20]: < 0.016 µg/mL; MIC [21]: 0.25 µg/mL (≈ 0.637 µM)

**Q.** Which MIC [1] does the source give for `O=C(O)c1cn(C2CC2)c2cc(N3CCc4ccccc4C3)c(F)cc2c1=O` here?
**A.** Its MIC is 1.15 µg/mL (≈ 3.04 µM).

**Q.** What about the MIC [2] of the same compound?
**A.** Its MIC is 1 µg/mL (≈ 2.64 µM).

**Q.** And the MIC [3]?
**A.** The MIC was 0.25 µg/mL (≈ 0.661 µM).

**Q.** And the MIC [4]?
**A.** The MIC was 8 µg/mL (≈ 21.1 µM).

**Q.** And the MIC [5]?
**A.** Its MIC is 0.25 µg/mL (≈ 0.661 µM).

**Q.** What about the MIC [6] of the same compound?
**A.** The MIC was 0.125 µg/mL (≈ 0.33 µM).

**Q.** What about the MIC [7] of the same compound?
**A.** The MIC was 0.25 µg/mL (≈ 0.661 µM).

**Q.** What about the MIC [8] of the same compound?
**A.** The MIC was greater than 16 µg/mL.

**Q.** What about the MIC [9] of the same compound?
**A.** Its MIC is 4 µg/mL (≈ 10.6 µM).

**Q.** And the MIC [10]?
**A.** The MIC was greater than 16 µg/mL.

**Q.** And the MIC [11]?
**A.** Its MIC is 0.06 µg/mL (≈ 0.159 µM).

**Q.** And the MIC [12]?
**A.** Its MIC is 4 µg/mL (≈ 10.6 µM).

**Q.** And the MIC [13]?
**A.** Its MIC is less than 0.016 µg/mL.

**Q.** What about the MIC [14] of the same compound?
**A.** The MIC was 0.25 µg/mL (≈ 0.661 µM).

**Q.** What about the MIC [15] of the same compound?
**A.** The MIC was 0.21 µg/mL (≈ 0.555 µM).

**Q.** And the MIC [16]?
**A.** The MIC was 8 µg/mL (≈ 21.1 µM).

**Q.** What about the MIC [17] of the same compound?
**A.** Its MIC is less than 0.016 µg/mL.

**Q.** And the MIC [18]?
**A.** Its MIC is 2 µg/mL (≈ 5.29 µM).

**Q.** What about the IC50 [19] of the same compound?
**A.** Its IC50 is 28.5 µM.

**Q.** What about the MIC [20] of the same compound?
**A.** Its MIC is less than 0.016 µg/mL.

**Q.** And the MIC [21]?
**A.** The MIC was 0.25 µg/mL (≈ 0.661 µM).

**Q.** What does the source list for `Cc1c(N2CCCCC2)c(N)cc2c(=O)c(C(=O)O)cn(C3CC3)c12`?
**A.** MIC [1]: 1 µg/mL (≈ 2.94 µM); MIC [2]: 1 µg/mL (≈ 2.93 µM); MIC [3]: 0.5 µg/mL (≈ 1.46 µM); MIC [4]: 16 µg/mL (≈ 46.9 µM); MIC [5]: 0.125 µg/mL (≈ 0.366 µM); MIC [6]: < 0.016 µg/mL; MIC [7]: 0.5 µg/mL (≈ 1.46 µM); MIC [8]: > 16 µg/mL; MIC [9]: 4 µg/mL (≈ 11.7 µM); MIC [10]: > 16 µg/mL; MIC [11]: 1 µg/mL (≈ 2.93 µM); MIC [12]: 4 µg/mL (≈ 11.7 µM); MIC [13]: < 0.016 µg/mL; MIC [14]: 0.125 µg/mL (≈ 0.366 µM); MIC [15]: 0.376 µg/mL (≈ 1.1 µM); MIC [16]: 8 µg/mL (≈ 23.4 µM); MIC [17]: < 0.016 µg/mL; MIC [18]: 0.5 µg/mL (≈ 1.46 µM); IC50 [19]: 9.37 µM; MIC [20]: 0.05 µg/mL (≈ 0.146 µM); MIC [21]: 2 µg/mL (≈ 5.86 µM)

**Q.** For `O=C(O)c1cn(C2CC2)c2cc(N3CCCCC3)c(F)cc2c1=O`, which MIC [22] is on record?
**A.** Its MIC is 0.495 µg/mL (≈ 1.5 µM).

**Q.** And the MIC [1]?
**A.** The MIC was 0.71 µg/mL (≈ 2.15 µM).

**Q.** And the MIC [2]?
**A.** The MIC was 0.5 µg/mL (≈ 1.51 µM).

**Q.** What about the MIC [3] of the same compound?
**A.** Its MIC is 0.5 µg/mL (≈ 1.51 µM).

**Q.** And the MIC [4]?
**A.** The MIC was 4 µg/mL (≈ 12.1 µM).

**Q.** And the MIC [5]?
**A.** Its MIC is 0.25 µg/mL (≈ 0.757 µM).

**Q.** And the MIC [6]?
**A.** The MIC was less than 0.016 µg/mL.

**Q.** And the MIC [7]?
**A.** Its MIC is 0.25 µg/mL (≈ 0.757 µM).

**Q.** And the MIC [8]?
**A.** The MIC was greater than 16 µg/mL.

**Q.** What about the MIC [9] of the same compound?
**A.** The MIC was 4 µg/mL (≈ 12.1 µM).

**Q.** And the MIC [10]?
**A.** The MIC was greater than 16 µg/mL.

**Q.** What about the MIC [11] of the same compound?
**A.** Its MIC is 0.25 µg/mL (≈ 0.757 µM).

**Q.** And the MIC [12]?
**A.** The MIC was 2 µg/mL (≈ 6.05 µM).

**Q.** And the MIC [13]?
**A.** Its MIC is less than 0.016 µg/mL.

**Q.** What about the MIC [14] of the same compound?
**A.** The MIC was 0.125 µg/mL (≈ 0.378 µM).

**Q.** And the MIC [16]?
**A.** Its MIC is greater than 16 µg/mL.

**Q.** And the MIC [17]?
**A.** Its MIC is 0.03 µg/mL (≈ 0.0908 µM).

**Q.** What about the MIC [18] of the same compound?
**A.** Its MIC is 8 µg/mL (≈ 24.2 µM).

**Q.** What about the IC50 [19] of the same compound?
**A.** Its IC50 is 97.2 µM.

**Q.** And the MIC [20]?
**A.** The MIC was 0.03 µg/mL (≈ 0.0908 µM).

**Q.** What about the MIC [21] of the same compound?
**A.** The MIC was 1 µg/mL (≈ 3.03 µM).

**Q.** What does the source list for `Cc1c(N2CCN(C)CC2)c(N)cc2c(=O)c(C(=O)O)cn(C3CC3)c12`?
**A.** MIC [1]: 0.459 µg/mL (≈ 1.29 µM); MIC [2]: 0.125 µg/mL (≈ 0.351 µM); MIC [3]: 2 µg/mL (≈ 5.61 µM); MIC [4]: 8 µg/mL (≈ 22.4 µM); MIC [5]: 4 µg/mL (≈ 11.2 µM); MIC [6]: 0.03 µg/mL (≈ 0.0842 µM); MIC [7]: 0.06 µg/mL (≈ 0.168 µM); MIC [8]: > 16 µg/mL; MIC [9]: 2 µg/mL (≈ 5.61 µM); MIC [10]: 8 µg/mL (≈ 22.4 µM); MIC [11]: 4 µg/mL (≈ 11.2 µM); MIC [12]: 1 µg/mL (≈ 2.81 µM); MIC [13]: 0.03 µg/mL (≈ 0.0842 µM); MIC [14]: 0.03 µg/mL (≈ 0.0842 µM); MIC [15]: 3.36 µg/mL (≈ 9.44 µM); MIC [16]: > 16 µg/mL; MIC [17]: 1 µg/mL (≈ 2.81 µM); MIC [18]: 4 µg/mL (≈ 11.2 µM); IC50 [19]: 10.7 µM; MIC [20]: 1 µg/mL (≈ 2.81 µM); MIC [21]: 8 µg/mL (≈ 22.4 µM)
